Target: eosinophils
Experiment: Eosinophil chemotaxis assay (assay (b))
Format: cell-based, human
Procedure: (b) Eosinophil Chemotaxis Assay.
Compounds were evaluated for their inhibitory effect on eosinophil chemotaxis. Eosinophils were purified from human peripheral blood by standard CD16 cell depletion using a Miltenyi cell separation column and a magnetic Super Macs magnet as previously described (Motegi & Kita, 1998; J. Immunology. 161:4340-6). Cells were re-suspended in RPMI 1640/10% FCS solution and incubated with calcein-AM (Molecular Probes) at 37° C. for 30 mins. Following incubation, the eosinophils were centrifuged at 400 g for 5 min and re-suspended in RPMI/FCS at 2.2 million/ml. Cells were then incubated in the presence of increasing concentration of compounds (1 pM to 30 μM) at 37° C. for 30 mins. For control responses cells were incubated with RPMI/FCS only. The agonist eotaxin (either a concentration response curve or for the functional inhibition curves an EC80 concentration) was added to the lower chamber of a 96 well chemotaxis plate (5 μm filter: Receptor Technologies). […] Cells remaining on top of the chemotaxis filter were removed and the number of eosinophils which had migrated were quantified by reading the plate on a fluorescent plate reader. Inhibition curves for the effect of compounds on eosinophil chemotaxis were analysed by fitting the data with a four parameter logistic equation. […]

`NS(=O)(=O)c1cccc(CC(=O)NC[C@H]2CN(Cc3ccc(Cl)c(Cl)c3)CCO2)c1` [Example 162, 2-[3-(Aminosulfonyl)phenyl]-N-{[(2S)-4-(3,4-dichlorobenzyl)morpholin-2-yl]methyl}acetamide] was tested, and the “CCR-3 Eosinophil Chemotaxis Assay (fpKi)” value was 8.2.

Source: patent publication US7101882B2, “Morpholin-acetamide derivatives for the treatment of inflammatory diseases” (Glaxo Group Limited, priority 2000, dated 2006)
